Measurements from article PMC5007513, “Discovery of new diketopiperazines inhibiting Burkholderia cenocepacia quorum sensing in vitro and in vivo” (Scientific Reports, 2016).
Like-named read-outs stand apart in the source and are kept apart here.

Target: T1, B. cenocepacia CepI (Burkholderia cenocepacia, UniProt B4EMD2)
T1 sequence (B4EMD2 1-202): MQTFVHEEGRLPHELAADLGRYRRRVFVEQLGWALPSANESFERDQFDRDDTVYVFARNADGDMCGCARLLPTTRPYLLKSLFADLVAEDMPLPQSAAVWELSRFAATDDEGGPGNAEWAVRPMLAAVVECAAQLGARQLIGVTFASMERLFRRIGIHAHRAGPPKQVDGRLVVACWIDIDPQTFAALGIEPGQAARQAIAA
Assay: CepI enzymatic assay (holo-ACP formation with DCPIP)
Format: biochemical, Burkholderia cenocepacia J2315
Method: Determination of the CepI enzyme activity was performed spectrophotometrically by measuring holo-ACP formation with dichlorophenylindophenol (DCPIP; ε = 19100 M^−1 cm^−1) at 37 °C according to Christensen et al.[19]. Reaction mixtures typically contained 50 mM 4-(2-hydroxyethyl)-1-piperazineethanesulfonic acid pH 7.5 (HEPES), 0.005% Nonidet P-40, 0.13 mM DCPIP, 70 μM C8-ACP, 40 μM S-adenosyl methionine (SAM), 4 μM CepI and the reaction was started by addition of SAM after pre-incubation for 10 min.
CepI inhibition was initially screened for all compounds at 100 μM (dissolved in DMSO). […] To determine IC50, the enzyme activities were measured in presence of different concentrations of compounds and values determined with equation (1): […]
where A[I] is the enzyme activity at inhibitor concentration [I] and A[0] is the enzyme activity without inhibitor.
Ki determination was determined using the equation (2) for noncompetitive inhibition[49]: […]

[1] = Supplementary Table S1, initial screen at 100 μM
[2] = recombinant CepI, read-out: CepI IC50

## O=C1CNC(=O)C(c2cc(OCc3ccccc3)ccc2OCc2ccccc2)N1 (stereo not drawn) [6a]
  IC50: 30 ± 6 µM

## O=C1N[C@H](Cc2ccccc2)C(=O)NC1c1cc(OCc2ccccc2)ccc1OCc1ccccc1 (stereo partly drawn) [6b]
[1]
  CepI IC50: not inhibitory

## CC(C)[C@H]1NC(=O)C(c2cc(OCc3ccccc3)ccc2OCc2ccccc2)NC1=O (stereo partly drawn) [6c]
[1]
  CepI IC50: not inhibitory

## O=C1CNC(=O)C(c2cc(O)ccc2O)N1 (stereo not drawn) [7a]
[1]
  CepI IC50: not inhibitory

## O=C1N[C@H](Cc2ccccc2)C(=O)NC1c1cc(O)ccc1O (stereo partly drawn) [7b]
[1]
  CepI IC50: not inhibitory

## CC(C)[C@H]1NC(=O)C(c2cc(O)ccc2O)NC1=O (stereo partly drawn) [7c]
[1]
  CepI IC50: not inhibitory

## O=C1C=CC(=O)C(C2NC(=O)CNC2=O)=C1 (stereo not drawn) [8a]
Supplementary Table S1, initial screen at 100 μM, read-out: CepI IC50
  IC50: 10 ± 1 µM

## O=C1C=CC(=O)C(C2NC(=O)C(Cc3ccccc3)NC2=O)=C1 (stereo not drawn) [8b]
  IC50: 5 ± 0.8 µM
  Ki: 17 ± 0.6 µM
Towards both C8-ACP and SAM substrates
  mechanism of inhibition: non-competitive inhibitor

## CC(C)C1NC(=O)C(C2=CC(=O)C=CC2=O)NC1=O (stereo not drawn) [8c]
[2]
  IC50: 5 to 30 µM

## CN1CCN(C(c2ccccn2)c2c(-c3ccccc3)n(O)c3ccccc23)CC1 (stereo not drawn) [compound 1 from Christensen et al., reference compound]
[2]
  IC50: 7.2 ± 0.2 µM
